The values below come from patent US20120197059A1, “UBIQUITIN INTERACTING MOTIF PEPTIDES AS CANCER THERAPEUTICS” (priority 2011, published 2012).

For data set [1] the following is noted: free acid; cited from earlier work.
The conditions of data set [2]: in vivo; cited from earlier work.
For data set [3] the following is noted: cited from earlier work.
The subject of the next data set is gliomas. The following applies: given before, at the time of or after tumor implantation; cited from earlier work.
Another data set deals with DKO MECs. Nature of the data set: BrdU labeling of mouse endothelial cells. Format: cell-based. As to the method:
BrdU labeling. BrdU labeling of Mouse Endothelial Cells. WT and DKO MECs were grown in a 48-well plate until they reached 50% percent confluency. Cells were starved overnight and stimulated with growth factors or growth factors plus inhibitors for 6 h. BrdU labeling and detection kit (Roche) was then used to label the proliferating cells. Briefly, cells were incubated with BrdU labeling medium (1:500 diluted in medium) for 3 h. Cells were washed three times with wash buffer and fixed with ethanol for 20 min at −20° C. followed by washing the cells three times with wash buffer and incubated with 6M HCl/0.1% Triton for 30 minutes at room temperature. This was followed by six washes with PBS/0.1% Triton. Cells were blocked with PBS/0.3% Triton/3% BSA/3% donkey serum for 30 min at room temperature followed by incubation with anti-BrdU working solution for 30 minutes at 37° C. After three washes with wash buffer cells were again incubated with donkey anti-mouse Ig-fluorescein for 30 minutes at 37° C. After washing the cells three times with wash buffer they were stained with DAPI and visualized using Olympus Fluorescent microscope. Percentage of proliferating cells was calculated based on the ratio of BrdU-positive cells versus DAPI-positive cells.
(Incorporation of labelled thymidine or its analogues reports DNA synthesis.)

Another data set has as its system retina angiogenesis. The data set is described as follows: Retinal angiogenic sprouting in EC-iDKO P6 pups, isolectin B4 staining. Type of data set: in vivo, mice. The following applies: IP/intraocular injection. Here is the method:
Immunohistochemistry and immunofluorescence of tissue samples. Immunohistochemistry and immunofluorescence were performed as described with modifications (Chen et al., 1998; Chen et al., 2009). • E9/10 Hind Brain: Embryos were harvested at E9 or E10 and fixed. Hindbrain was harvested and processed for staining with anti-CD31 and donkey anti-rat Alex Fluor 488 secondary antibody. • P6 Skin: Wild-type or EC-iDKO pups were injected intraperitoneally with 5 mg/kg (body weight) of 4-hydroxytamoxifen (10 mg/ml of 4-Hydroxytamoxifen resuspended in 10% of ethanol and 90% of DMSO) per day from postnatal day 1 (P1) to P3. Pups were euthanized at P6 and skin from abdomen was harvested and processed for whole mount staining with anti-CD31 and donkey anti-rat Alexa Fluor 488 secondary antibody. • P6 Retina: Wild-type or EC-iDKO Pups were injected with 4-hydroxytamoxifen as described above per day from postnatal day 2 (P2) to P4. P6 pups were euthanized and whole eyes harvested. […]
Receptor tyrosine kinase inhibitors injection. […] For western blot analysis, skin and heart tissues were collected from WT P6 pups injected either with DMSO or inhibitors and analyzed for phospho-Akt and total Akt.

The subject of a further data set is VEGFR-2. Nature of the data set: VEGF signaling assay with Dynasore, western blotting. The following applies: HUVEC, 40 or 80 μM Dynasore, VEGF-A 50 ng/ml. Type of data set: cell-based, human. (In general: A western blot detects proteins with antibodies after separation by electrophoresis.)

`CC(C)(C)[N+]([O-])=Cc1ccc(S(=O)(=O)O)cc1S(=O)(=O)O` [2,4-ds PBN, 2,4-disulfonyl phenyl-tert-butyl nitrone]: the solubility in water result in data set [1] is listed as “greater than 1 gram/ml”. In data set [2], the “efficacy as compared to PBN” value is “unexpected increase”; the “potency as compared to PBN” value is given as “increase in potency”; the “toxicity as compared to PBN” value was “marked and highly significant decrease”.
Take `CC(C)(C)[N+]([O-])=Cc1ccccc1` [PBN, phenyl N-tert-butyl nitrone]: the tissue distribution result in data set [3] (rat, in vivo) is “readily and rapidly distributed almost equally to all tissues”. In addition, the half-life result in data set [3] (rats) is given as “about 132 minutes”. The glioma tumor development result in the data set with gliomas was “able to control tumor development”.
Turning to `CC(C)c1cc(/C=C(\C#N)C(=O)NCCCc2ccccc2)cc(C(C)C)c1O` [inhibitors to VEGFR-2], the “VEGF-increased proliferation of DKO MECs” value with DKO MECs is recorded as “abrogated”. Further, the “elevated angiogenic sprouting in EC-iDKO retina” value in the data set with retina angiogenesis is recorded as “reversed”.
Consider `O=C(N/N=C/c1ccc(O)c(O)c1)c1cc2ccccc2cc1O` [Dynasore], for which the “total levels of VEGFR-2 and phosphorylation of VEGFR-2 and its downstream signaling effectors” value in the data set with VEGFR-2 was “dramatically increased”.
